Laboratory results: patent US20140179664A1, “Heterocyclyl Pyrimidine Analogues As JAK Inhibitors” (Cellzome Limited, priority 2011, published 2014)

Target: T1, JAK1 (Homo sapiens, UniProt P23458)
T1 construct: endogenous in cells; host or cells: Molt4 (ATCC CRL-1582) and Ramos (ATCC CRL-1596), mixed lysate 1:2
Test: Kinobeads assay, JAK1
Assay type: binding
Conditions: mixed Molt4/Ramos lysate, read-out: Inhibition values (IC50) JAK1
Procedure, shortened: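 Mixed Molt4/Ramos cell lysate (1:2) was incubated 3 hours in the cold with kinobeads and a 9-step 1:3 compound dilution series. The no-compound control carried 2% DMSO. Bead-bound JAK1 was eluted, detected by antibody dot blot with infrared fluorescence, and IC50 derived from dose-response curves.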

T1 sequence (P23458 whole entry): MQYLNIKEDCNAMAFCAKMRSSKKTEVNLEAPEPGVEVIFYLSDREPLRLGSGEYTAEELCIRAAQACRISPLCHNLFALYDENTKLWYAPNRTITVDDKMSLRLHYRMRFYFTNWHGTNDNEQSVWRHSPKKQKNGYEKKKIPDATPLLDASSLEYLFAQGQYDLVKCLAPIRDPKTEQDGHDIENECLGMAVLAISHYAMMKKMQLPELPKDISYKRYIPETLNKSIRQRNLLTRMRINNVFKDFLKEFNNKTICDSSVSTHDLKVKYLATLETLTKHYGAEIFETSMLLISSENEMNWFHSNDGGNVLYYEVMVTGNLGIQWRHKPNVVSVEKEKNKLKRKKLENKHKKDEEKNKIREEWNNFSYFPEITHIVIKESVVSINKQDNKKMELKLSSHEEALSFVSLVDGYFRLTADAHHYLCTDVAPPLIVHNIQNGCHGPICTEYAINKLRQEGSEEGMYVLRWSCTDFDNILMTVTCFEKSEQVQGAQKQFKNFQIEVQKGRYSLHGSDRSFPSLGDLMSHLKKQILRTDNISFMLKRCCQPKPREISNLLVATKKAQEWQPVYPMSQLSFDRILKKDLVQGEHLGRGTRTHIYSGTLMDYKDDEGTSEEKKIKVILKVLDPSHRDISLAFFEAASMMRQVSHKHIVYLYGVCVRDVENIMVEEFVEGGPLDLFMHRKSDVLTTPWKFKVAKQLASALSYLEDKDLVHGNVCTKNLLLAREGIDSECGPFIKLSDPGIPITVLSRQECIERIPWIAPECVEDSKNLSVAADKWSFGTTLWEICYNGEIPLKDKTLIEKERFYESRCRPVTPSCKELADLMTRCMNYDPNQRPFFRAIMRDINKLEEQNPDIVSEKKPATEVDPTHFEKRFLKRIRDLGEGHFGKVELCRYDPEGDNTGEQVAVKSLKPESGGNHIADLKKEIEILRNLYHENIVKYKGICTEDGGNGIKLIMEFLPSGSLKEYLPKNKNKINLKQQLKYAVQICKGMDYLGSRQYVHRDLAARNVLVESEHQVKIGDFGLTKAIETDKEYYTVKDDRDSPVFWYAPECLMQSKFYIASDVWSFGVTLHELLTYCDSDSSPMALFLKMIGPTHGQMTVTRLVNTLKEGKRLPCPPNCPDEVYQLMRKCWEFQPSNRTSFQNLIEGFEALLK

## Cn1cc(Nc2ncc(Cl)c(N[C@H](CO)c3cccnc3)n2)cn1 [Compound 91]
  IC50: 100 to 1000 nM

## OCCn1cc(Nc2ncc(Cl)c(NC(CO)c3cccc(Br)c3)n2)cn1 (stereo not shown) [Compound 93]
  IC50: 1000 to 10000 nM

## Cn1cc(Nc2ncc(F)c(N[C@H](CO)c3ccccc3)n2)cn1 [Compound 3]
  IC50: 1000 to 10000 nM

## CN(C)CCNC(=O)Cn1cc(Nc2ncc(Cl)c(N[C@H](CO)c3ccccc3)n2)cn1 [Compound 89]
  IC50: 100 to 1000 nM

## Cn1cc(Nc2ncc(Cl)c(N[C@H](CO)c3cccc(F)c3)n2)cn1 [Compound 85]
  IC50: 100 to 1000 nM

## NC(=O)Cn1cc(Nc2ncc(Cl)c(N[C@H](CO)c3cccc(F)c3)n2)cn1 [Compound 87]
  IC50: < 100 nM

## OC[C@@H](Nc1nc(Nc2cn[nH]c2)ncc1Cl)c1cccc(F)c1 [Compound 88]
  IC50: 100 to 1000 nM

## OCCn1cc(Nc2ncc(Cl)c(N[C@H](CO)c3cccnc3)n2)cn1 [Compound 92]
  IC50: 100 to 1000 nM

## OCCn1cc(Nc2ncc(Cl)c(N[C@H](CO)c3cccc(F)c3)n2)cn1 [Compound 86]
  IC50: 100 to 1000 nM

## CN(C)CCCNC(=O)Cn1cc(Nc2ncc(Cl)c(N[C@H](CO)c3ccccc3)n2)cn1 [Compound 90]
  IC50: 100 to 1000 nM
